The text below walks through data of ChEMBL document CHEMBL1201862, “PubChem BioAssay data set” (2004).

The source made the active and inactive calls. Bounds are passed on as bounds.

As usually defined, the Ki is the equilibrium dissociation constant of an inhibitor or competing ligand from its target. Broadly, the pKi is the negative decadic logarithm of the Ki, by convention in mol/L.

What all share (assay type): functional
Assay [1] addresses Serine/threonine-protein kinase 3 (Homo sapiens, UniProt Q13188).
Assay [2] addresses Macrophage colony-stimulating factor 1 receptor (Homo sapiens, UniProt P07333).
For assay [3], the target named is T1, Serine/threonine-protein kinase TAO1 (Homo sapiens, UniProt Q7L7X3).
T1 sequence (Q7L7X3 whole entry): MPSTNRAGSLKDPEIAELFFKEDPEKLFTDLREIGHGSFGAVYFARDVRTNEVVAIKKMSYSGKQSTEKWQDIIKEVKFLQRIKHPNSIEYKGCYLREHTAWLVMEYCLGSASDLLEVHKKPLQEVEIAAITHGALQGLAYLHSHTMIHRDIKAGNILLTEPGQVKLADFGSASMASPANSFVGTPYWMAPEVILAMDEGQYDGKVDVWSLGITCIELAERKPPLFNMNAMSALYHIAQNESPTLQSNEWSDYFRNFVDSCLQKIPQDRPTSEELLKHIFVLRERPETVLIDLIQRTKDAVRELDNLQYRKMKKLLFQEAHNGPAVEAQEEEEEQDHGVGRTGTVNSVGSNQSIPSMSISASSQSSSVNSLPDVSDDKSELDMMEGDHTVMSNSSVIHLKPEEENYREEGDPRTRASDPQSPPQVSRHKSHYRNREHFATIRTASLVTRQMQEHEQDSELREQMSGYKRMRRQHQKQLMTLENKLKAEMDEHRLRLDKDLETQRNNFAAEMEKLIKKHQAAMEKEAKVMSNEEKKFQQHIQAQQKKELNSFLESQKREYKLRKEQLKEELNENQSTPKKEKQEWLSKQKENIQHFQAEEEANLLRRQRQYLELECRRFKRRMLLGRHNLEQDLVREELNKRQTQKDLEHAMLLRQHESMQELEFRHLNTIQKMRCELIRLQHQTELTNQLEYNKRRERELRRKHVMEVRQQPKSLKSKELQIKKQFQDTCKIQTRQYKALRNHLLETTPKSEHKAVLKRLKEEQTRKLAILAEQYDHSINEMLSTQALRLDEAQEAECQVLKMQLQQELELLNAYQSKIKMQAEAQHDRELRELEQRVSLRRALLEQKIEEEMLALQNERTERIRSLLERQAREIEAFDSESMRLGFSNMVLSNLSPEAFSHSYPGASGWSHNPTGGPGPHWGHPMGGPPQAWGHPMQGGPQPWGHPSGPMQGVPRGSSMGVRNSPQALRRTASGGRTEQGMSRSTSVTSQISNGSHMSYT

In assay [4] the target is ALK tyrosine kinase receptor (Homo sapiens, UniProt Q9UM73).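 Further: ALK tested as one member of a kinase panel screen.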
Assay [5] deals with Testis-specific serine/threonine-protein kinase 1 (Homo sapiens, UniProt Q9BXA7).
Sequence of Testis-specific serine/threonine-protein kinase 1 (Q9BXA7 whole entry): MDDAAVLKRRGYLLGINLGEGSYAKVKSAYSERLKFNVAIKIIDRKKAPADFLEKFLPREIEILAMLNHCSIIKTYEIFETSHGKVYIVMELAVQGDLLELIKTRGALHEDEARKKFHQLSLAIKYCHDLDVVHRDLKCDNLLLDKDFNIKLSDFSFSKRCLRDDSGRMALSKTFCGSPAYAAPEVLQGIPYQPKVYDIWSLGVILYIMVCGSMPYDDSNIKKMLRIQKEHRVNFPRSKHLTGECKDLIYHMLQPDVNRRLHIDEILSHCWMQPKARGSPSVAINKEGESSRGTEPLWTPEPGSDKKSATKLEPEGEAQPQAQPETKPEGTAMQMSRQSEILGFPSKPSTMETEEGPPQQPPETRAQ
The target of assay [6] is Hepatocyte growth factor receptor (Homo sapiens, UniProt P08581).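 Further: kinase panel profiling across the kinome, with MET as the panel member.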
Assay [7] concerns the target 5'-AMP-activated protein kinase catalytic subunit alpha-1 (Homo sapiens, UniProt Q13131).
Assay [8] concerns the target Vascular endothelial growth factor receptor 1 (Homo sapiens, UniProt P17948).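 Further: measured within a kinome-wide profiling panel, FLT1 as the panel member.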
The target of assay [9] is T2, Mitogen-activated protein kinase 12 (Homo sapiens, UniProt P53778).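 Further: measured as one member of a kinome-wide kinase profiling panel.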
T2 sequence (P53778 whole entry): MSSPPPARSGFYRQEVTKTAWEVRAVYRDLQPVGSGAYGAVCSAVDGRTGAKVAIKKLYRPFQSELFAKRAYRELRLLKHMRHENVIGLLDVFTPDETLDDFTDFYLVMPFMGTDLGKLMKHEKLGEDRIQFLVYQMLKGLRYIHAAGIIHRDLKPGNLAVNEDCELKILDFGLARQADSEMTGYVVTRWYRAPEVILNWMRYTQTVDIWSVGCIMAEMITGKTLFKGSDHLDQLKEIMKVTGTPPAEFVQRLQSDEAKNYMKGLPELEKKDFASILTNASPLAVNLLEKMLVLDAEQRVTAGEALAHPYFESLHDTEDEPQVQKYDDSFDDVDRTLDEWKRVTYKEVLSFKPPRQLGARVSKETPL

Assay [10] deals with T3, Dual specificity tyrosine-phosphorylation-regulated kinase 4 (Homo sapiens, UniProt Q9NR20).
T3 sequence (Q9NR20 whole entry): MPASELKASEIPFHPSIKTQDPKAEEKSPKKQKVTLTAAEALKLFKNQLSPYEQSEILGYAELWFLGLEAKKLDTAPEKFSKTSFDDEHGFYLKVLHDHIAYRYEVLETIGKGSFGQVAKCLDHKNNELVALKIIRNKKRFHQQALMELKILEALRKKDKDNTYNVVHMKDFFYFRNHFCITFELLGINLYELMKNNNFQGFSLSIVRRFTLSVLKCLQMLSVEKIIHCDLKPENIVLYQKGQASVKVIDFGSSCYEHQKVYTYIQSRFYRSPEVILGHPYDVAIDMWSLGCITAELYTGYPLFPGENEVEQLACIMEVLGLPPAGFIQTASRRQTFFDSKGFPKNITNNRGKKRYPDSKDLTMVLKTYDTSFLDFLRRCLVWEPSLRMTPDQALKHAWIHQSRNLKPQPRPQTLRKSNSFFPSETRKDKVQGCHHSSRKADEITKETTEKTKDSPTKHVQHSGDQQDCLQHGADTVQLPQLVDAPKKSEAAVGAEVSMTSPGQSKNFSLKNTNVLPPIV

The target in assay [11] is Death-associated protein kinase 3 (Homo sapiens, UniProt O43293).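 Further: measured as one member of a kinome-wide profiling panel.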
Sequence of Death-associated protein kinase 3 (O43293 whole entry): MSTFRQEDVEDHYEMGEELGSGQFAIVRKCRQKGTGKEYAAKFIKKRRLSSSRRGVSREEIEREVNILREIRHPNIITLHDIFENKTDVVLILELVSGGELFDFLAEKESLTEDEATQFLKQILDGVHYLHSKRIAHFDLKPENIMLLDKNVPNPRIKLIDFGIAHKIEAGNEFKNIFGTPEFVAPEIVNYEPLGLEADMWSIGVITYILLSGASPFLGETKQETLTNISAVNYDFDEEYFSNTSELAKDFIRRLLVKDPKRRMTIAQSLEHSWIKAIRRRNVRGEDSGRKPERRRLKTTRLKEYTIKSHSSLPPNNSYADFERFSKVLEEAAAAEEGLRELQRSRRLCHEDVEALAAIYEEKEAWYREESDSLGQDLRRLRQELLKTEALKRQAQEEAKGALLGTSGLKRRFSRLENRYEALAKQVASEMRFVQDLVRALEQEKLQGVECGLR
Assay [12] concerns the target MAP kinase-activated protein kinase 2 (Homo sapiens, UniProt P49137).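 Further: measured as one member of a kinome-wide kinase panel.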
Assay [13] deals with Mitogen-activated protein kinase kinase kinase kinase 5 (Homo sapiens, UniProt Q9Y4K4).
Sequence of Mitogen-activated protein kinase kinase kinase kinase 5 (Q9Y4K4 whole entry, canonical isoform): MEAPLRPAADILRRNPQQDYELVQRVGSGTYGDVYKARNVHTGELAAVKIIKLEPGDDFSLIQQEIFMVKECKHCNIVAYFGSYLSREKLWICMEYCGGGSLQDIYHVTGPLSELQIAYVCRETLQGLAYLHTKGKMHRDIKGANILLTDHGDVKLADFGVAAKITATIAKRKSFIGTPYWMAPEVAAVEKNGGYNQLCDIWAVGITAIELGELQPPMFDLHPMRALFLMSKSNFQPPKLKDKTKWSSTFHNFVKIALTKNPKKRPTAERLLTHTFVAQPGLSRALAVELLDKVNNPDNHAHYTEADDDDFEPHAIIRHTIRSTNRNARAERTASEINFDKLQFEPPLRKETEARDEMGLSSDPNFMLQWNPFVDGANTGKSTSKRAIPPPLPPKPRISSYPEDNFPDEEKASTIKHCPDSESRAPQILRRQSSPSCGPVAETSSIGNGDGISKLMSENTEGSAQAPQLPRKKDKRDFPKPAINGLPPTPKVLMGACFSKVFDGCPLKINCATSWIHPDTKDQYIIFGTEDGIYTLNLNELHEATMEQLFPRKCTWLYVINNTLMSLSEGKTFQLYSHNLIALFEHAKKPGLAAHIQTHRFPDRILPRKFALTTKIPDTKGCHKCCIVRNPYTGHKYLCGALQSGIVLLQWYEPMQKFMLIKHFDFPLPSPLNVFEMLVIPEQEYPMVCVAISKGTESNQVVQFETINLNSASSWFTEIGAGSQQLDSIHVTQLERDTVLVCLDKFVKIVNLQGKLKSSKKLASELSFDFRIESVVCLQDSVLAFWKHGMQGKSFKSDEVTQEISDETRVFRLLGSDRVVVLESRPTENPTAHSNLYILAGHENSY
For assay [14], the target named is Casein kinase I isoform alpha (Homo sapiens, UniProt P48729).
Sequence of Casein kinase I isoform alpha (P48729 whole entry, canonical isoform): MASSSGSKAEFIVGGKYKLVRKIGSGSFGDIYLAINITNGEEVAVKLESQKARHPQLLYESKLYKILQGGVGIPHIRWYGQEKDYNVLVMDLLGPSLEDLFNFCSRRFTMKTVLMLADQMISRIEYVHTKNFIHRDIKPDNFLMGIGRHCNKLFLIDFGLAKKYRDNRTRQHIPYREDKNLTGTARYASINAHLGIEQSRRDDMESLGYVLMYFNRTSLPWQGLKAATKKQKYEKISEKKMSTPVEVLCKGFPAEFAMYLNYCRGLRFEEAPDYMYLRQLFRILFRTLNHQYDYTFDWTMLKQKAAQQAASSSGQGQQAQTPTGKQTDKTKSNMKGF
Assay [15] deals with Mast/stem cell growth factor receptor Kit (Homo sapiens, UniProt P10721).
Assay [16] addresses MAP kinase-interacting serine/threonine-protein kinase 2 (Homo sapiens, UniProt Q9HBH9).
In assay [17] the target is Casein kinase I isoform gamma-1 (Homo sapiens, UniProt Q9HCP0).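 Further: measured as the CSNK1G1 member of a kinome profiling panel.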
Sequence of Casein kinase I isoform gamma-1 (Q9HCP0 whole entry, canonical isoform): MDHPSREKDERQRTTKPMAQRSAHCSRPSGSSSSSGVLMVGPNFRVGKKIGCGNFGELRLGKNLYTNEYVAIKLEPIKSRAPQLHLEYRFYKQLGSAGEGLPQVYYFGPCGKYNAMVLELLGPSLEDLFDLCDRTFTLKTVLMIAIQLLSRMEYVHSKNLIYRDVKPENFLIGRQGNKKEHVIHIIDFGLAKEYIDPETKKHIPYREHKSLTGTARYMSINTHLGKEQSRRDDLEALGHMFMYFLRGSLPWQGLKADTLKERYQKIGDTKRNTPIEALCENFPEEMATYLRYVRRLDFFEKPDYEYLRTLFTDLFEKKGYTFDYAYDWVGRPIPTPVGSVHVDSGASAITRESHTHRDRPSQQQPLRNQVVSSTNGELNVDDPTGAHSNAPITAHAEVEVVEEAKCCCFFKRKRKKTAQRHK
Assay [18] concerns the target MAP kinase-activated protein kinase 3 (Homo sapiens, UniProt Q16644).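 Further: value comes from a kinome-wide profiling panel in which MAPKAPK3 is one of the panel members.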
The target of assay [19] is Calcium/calmodulin-dependent protein kinase type II subunit gamma (Homo sapiens, UniProt Q13555).
Sequence of Calcium/calmodulin-dependent protein kinase type II subunit gamma (Q13555 whole entry): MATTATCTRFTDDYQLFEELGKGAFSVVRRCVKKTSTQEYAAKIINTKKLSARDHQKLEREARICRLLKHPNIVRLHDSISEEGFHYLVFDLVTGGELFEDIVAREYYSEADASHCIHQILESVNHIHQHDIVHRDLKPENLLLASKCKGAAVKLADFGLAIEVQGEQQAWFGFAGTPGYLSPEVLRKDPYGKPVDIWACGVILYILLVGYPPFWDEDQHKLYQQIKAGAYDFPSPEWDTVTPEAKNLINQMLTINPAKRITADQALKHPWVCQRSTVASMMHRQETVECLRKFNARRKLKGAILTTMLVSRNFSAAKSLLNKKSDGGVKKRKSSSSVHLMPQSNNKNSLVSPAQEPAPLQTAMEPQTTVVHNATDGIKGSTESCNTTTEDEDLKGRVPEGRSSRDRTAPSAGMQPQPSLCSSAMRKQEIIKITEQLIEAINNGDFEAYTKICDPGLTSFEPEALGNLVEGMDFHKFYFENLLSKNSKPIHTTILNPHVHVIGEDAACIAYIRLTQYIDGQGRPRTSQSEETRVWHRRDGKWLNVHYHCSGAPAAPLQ

Sequence of MAP kinase-interacting serine/threonine-protein kinase 2 (Q9HBH9 whole entry, canonical isoform): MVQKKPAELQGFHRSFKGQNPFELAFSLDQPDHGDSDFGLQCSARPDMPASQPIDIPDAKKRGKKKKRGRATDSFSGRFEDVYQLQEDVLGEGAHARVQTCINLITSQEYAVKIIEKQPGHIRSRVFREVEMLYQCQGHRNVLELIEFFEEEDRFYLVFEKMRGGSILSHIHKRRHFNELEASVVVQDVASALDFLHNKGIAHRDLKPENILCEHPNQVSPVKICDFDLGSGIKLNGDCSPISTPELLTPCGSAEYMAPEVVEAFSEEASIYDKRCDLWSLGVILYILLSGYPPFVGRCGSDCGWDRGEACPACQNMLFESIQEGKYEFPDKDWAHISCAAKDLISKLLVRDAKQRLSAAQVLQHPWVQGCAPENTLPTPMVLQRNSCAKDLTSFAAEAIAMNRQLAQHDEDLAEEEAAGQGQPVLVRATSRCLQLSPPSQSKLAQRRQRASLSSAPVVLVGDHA
Sequence of Vascular endothelial growth factor receptor 1 (P17948 whole entry): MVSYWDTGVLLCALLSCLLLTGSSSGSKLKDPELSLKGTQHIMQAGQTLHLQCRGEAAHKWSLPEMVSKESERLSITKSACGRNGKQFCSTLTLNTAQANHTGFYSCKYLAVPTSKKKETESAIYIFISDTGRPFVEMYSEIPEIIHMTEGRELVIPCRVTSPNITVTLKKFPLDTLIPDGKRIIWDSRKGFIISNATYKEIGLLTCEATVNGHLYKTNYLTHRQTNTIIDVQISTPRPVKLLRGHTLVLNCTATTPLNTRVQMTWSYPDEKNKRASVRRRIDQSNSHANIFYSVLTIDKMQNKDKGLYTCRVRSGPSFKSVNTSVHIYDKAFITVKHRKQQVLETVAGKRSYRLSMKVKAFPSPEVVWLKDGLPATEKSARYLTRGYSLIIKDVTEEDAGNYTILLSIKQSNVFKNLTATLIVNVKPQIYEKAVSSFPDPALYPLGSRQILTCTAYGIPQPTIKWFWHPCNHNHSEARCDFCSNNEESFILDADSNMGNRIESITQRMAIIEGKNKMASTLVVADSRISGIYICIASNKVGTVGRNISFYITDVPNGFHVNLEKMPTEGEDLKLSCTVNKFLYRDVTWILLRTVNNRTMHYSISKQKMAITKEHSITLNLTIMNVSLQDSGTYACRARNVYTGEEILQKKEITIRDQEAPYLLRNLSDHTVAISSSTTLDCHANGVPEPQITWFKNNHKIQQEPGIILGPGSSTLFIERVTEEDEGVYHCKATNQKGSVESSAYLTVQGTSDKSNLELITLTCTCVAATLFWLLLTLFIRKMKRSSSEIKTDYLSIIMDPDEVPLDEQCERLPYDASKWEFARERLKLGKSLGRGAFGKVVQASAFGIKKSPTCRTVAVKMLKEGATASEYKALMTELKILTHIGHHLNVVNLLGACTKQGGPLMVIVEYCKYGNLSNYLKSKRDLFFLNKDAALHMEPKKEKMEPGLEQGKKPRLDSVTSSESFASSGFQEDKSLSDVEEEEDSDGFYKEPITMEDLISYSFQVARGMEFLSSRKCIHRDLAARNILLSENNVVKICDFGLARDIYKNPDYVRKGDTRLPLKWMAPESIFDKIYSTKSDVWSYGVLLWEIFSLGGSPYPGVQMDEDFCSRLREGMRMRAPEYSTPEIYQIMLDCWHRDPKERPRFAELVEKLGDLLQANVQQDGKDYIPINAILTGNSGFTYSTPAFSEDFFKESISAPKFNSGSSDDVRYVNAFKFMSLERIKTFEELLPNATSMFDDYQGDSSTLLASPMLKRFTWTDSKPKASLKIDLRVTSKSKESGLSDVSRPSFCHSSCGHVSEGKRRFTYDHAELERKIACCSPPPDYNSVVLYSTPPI

As for `NC(COc1cncc(-c2ccc3c(c2)C(=Cc2ccco2)C(=O)N3)c1)Cc1c[nH]c2ccccc12` (stereo unspecified), the Ki was 12.6 nM (active) in [1]; > 2510 nM (inactive) in assay [2]; 126 nM (active) in assay [3]; > 1260 nM (inactive) in [4]; 6.31 nM (active) in assay [5]; > 3160 nM (inactive) in assay [6]. Moreover, the inhibitory constant (Ki) in assay [7] is 20 nM (active); in assay [8] it was > 398 nM (inactive); in assay [9] it was 2510 nM (active); in assay [10], 398 nM (active); in assay [11] it was 20 nM (active); in assay [12], 2000 nM (active). Besides, the Ki is 63.1 nM (active) in assay [13]; 501 nM (active) in assay [14]; 126 nM (active) in [15]; 316 nM (active) in assay [16]; 1260 nM (active) in assay [17]; > 10000 nM (inactive) in [18]. Moreover, the Ki in assay [19] was 25.1 nM (active).

Consider `NC(=O)c1cc(-c2ccnc(N)n2)[nH]c1-c1ccc(Cl)cc1Cl`, for which the Ki is > 3160 nM (inactive) in [1]; > 2510 nM (inactive) in assay [2]; 251 nM (active) in assay [3]; > 1260 nM (inactive) in [4]; > 1580 nM (inactive) in assay [5]; > 2510 nM (inactive) in assay [6]. Also, the Ki in [7] was > 1580 nM (inactive); in [8] it was > 398 nM (inactive); in assay [9], 79.4 nM (active); in assay [10], 10 nM (active); in assay [11], 398 nM (active); in [12] it was > 7940 nM (inactive). Besides, the Ki was > 2510 nM (inactive) in assay [13]; 7.94 nM (active) in [14]; > 1260 nM (inactive) in assay [15]; 79.4 nM (active) in assay [16]; 25.1 nM (active) in assay [17]; > 10000 nM (inactive) in assay [18]. For the same molecule, the Ki in assay [19] is 6310 nM (active). The pKi in [3] worked out at 6.6; in [9], 7.1; in [10], 8; in assay [11] it was 6.4; in assay [14], 8.1; in assay [16] it was 7.1. In addition, the pKi in [17] is 7.6; in [19], 5.2.
